Tests used:
Format in all cases: functional, cell-based
[1] = tested on: KETR3; experiment: Cytotoxicity against human KETR3 cells by MTT assay
[2] = tested on: PC-3; experiment: Cytotoxicity against human PC3M cells by MTT assay
[3] = tested on: Bel-7402; experiment: Cytotoxicity against human BEL-7402 cells by MTT assay
[4] = tested on: PANC-1; experiment: Cytotoxicity against human PANC1 cells by MTT assay
[5] = tested on: BGC-823; experiment: Cytotoxicity against human BGC823 cells by MTT assay
[6] = tested on: NCI-H460; experiment: Cytotoxicity against human H460 cells by MTT assay
[7] = tested on: A-431; experiment: Cytotoxicity against human A431 cells by MTT assay
[8] = tested on: HCT-8; experiment: Cytotoxicity against human HCT8 cells by MTT assay

Row | SMILES | IC50 [1] | IC50 [2] | IC50 [3] | IC50 [4] | IC50 [5] | IC50 [6] | IC50 [7] | IC50 [8]
1 | CO[C@]1(CC[C@H](C)CO)O[C@H]2C[C@H]3[C@@H]4CC=C5C[C@@H](O[C@H]6O[C@H](CO)[C@@H](O)[C@H](O[C@@H]7O[C@H](CO)[C@@H](O)[C@H](O)[C@H]7O)[C@H]6O[C@@H]6O[C@@H](C)[C@H](O)[C@@H](O)[C@H]6O)CC[C@]5(C)[C@H]4CC[C@]3(C)[C@H]2[C@@H]1C | 3.78 µM | 2.76 µM | 950 nM | 380 nM | 2520 nM | 8.16 µM | 670 nM | 1420 nM
2 | CO[C@]1(CC[C@H](C)CO)O[C@H]2C[C@H]3[C@@H]4CC=C5C[C@@H](O[C@@H]6O[C@H](CO)[C@@H](O)[C@H](O[C@@H]7O[C@H](CO)[C@@H](O)[C@H](O)[C@H]7O)[C@H]6O[C@@H]6O[C@@H](C)[C@H](O)[C@@H](O)[C@H]6O)CC[C@]5(C)[C@H]4CC[C@]3(C)[C@H]2[C@@H]1C [ICOGENIN] | 5.15 µM | 4.35 µM | 750 nM | 270 nM | > 10000 nM | > 10 µM | 3440 nM | 1450 nM
